Here are results for 17 compounds from patent US5854204A, “Aβ peptides that modulate β-amyloid aggregation” (priority 1996, dated 1998).

SMILES strings stand for the structures. Numbered stars: 1 amine (or outer) side, 2 acyl side, 3 side chain; on linkers, the order of the positions; unused ones are H or OH. Square brackets hold non-standard residues; d marks the D form. Peptide text beside a SMILES is read from it. * marks the point of attachment. Cholyl = C[C@H](CCC(=O)*)[C@H]1CC[C@H]2[C@@H]3[C@H](O)C[C@@H]4C[C@H](O)CC[C@]4(C)[C@H]3C[C@H](O)[C@]12C; X2 = O=C(C1(O)C[C@H](O)[C@@H](N[*:1])[C@H]([C@H](O)[C@H](O)CO)O1)[*:2]; βAla = NCCC(=O)O

For experiment [1], the target named is T1, Aβ1-40 (Homo sapiens, UniProt P05067).
From the text: (§1) The nucleation assay is employed to determine the ability of test compounds to alter (e.g. inhibit) the early events in formation of β-AP fibers from monomeric β-AP. […] The time delay before polymerization of β-AP monomer can be quantified as well as the extent of formation of insoluble fiber by light scattering (turbidity). Polymerization reaches equilibrium when the maximum turbidity reaches a plateau. […] The threshold of sensitivity for the measurement of turbidity is in the range of 15-20 μM β-AP. […] This assay can be performed using stirring or shaking to accelerate polymerization, thereby increasing the speed of the assay. Moreover the assay can be adapted to a 96-well plate format to screen multiple compounds.
(§2) HFIP-solubilized peptide is sonicated in a waterbath sonicator for 5 min at highest setting, then evaporated to dryness under a stream of argon. […] Test compounds are dissolved in DMSO at a 100× concentration. […] Ten microliters of the mixture is then added to the bottom of a well of a Corning Costar ultra low binding 96-well plate (Corning Costar, Cambridge Mass.; cat. No. 2500). […] The plate is then returned to the shaker and shaken continuously for 5 hours. Turbidity readings are taken at 15 minute intervals.
(§3) Accordingly a fold increase in lag time of 1.0 indicates no change in lag time, whereas numbers >1.0 indicate an increase in lag time. The "% inhibition of plateau", which is a measure of the ability of the compound to decrease the total amount of aggregation, refers to the reduction of the final turbidity in the presence of the test compound expressed as a percent of the control without the test compound.
Experiment [2] addresses T1, Aβ1-40. Briefly: biochemical. As to conditions: read-out: % Inucl'n (percent reduction in maximum turbidity).
From the text: as §1, §2, §3
The target of experiment [3] is T1, Aβ1-40. Briefly: Seeded extension assay (thioflavin T fluorescence). On the set-up: Natural β-AP (β-AP1-40) was obtained commercially from Bachem (Torrance, Calif.); purchased Bachem (Torrance, Calif.). The conditions noted are these: Table V; 25 mole % inhibitor. It counts as biochemical. The procedure:
The seeded extension assay can be employed to measure the rate of Aβ fiber formed in a solution of Aβ monomer following addition of polymeric Aβ fiber "seed". The ability of test compounds to prevent further deposition of monomeric Aβ to previously deposited amyloid is determined using a direct indicator of β-sheet formation using fluorescence. In contrast with the nucleation assay, the addition of seed provides immediate nucleation and continued growth of preformed fibrils without the need for continuous mixing, and thus results in the absence of a lag time before polymerization starts. Since this assay uses static polymerization conditions, the activity of positive compounds in the nucleation assay can be confirmed in this second assay under different conditions and with an additional probe of amyloid structure.
Samples of the solution are then diluted in thioflavin T (Th-T). The polymer-specific association of Th-T with Aβ produces a fluorescent complex that allows the measurement of the extent of fibril formation (Levine, H. (1993) Protein Science 2:404-410). In particular, association of Th-T with aggregated β-AP, but not monomeric or loosely associated β-AP, gives rise to a new excitation (ex) maximum at 450 nm and an enhanced emission (em) at 482 nm, compared to the 385 nm (ex) and 445 nm (em) for the free dye. Small aliquots of the polymerization mixture contain sufficient fibril to be mixed with Th-T to allow the monitoring of the reaction mixture by repeated sampling. A linear growth curve is observed in the presence of excess monomer. The formation of thioflavin T responsive β-sheet fibrils parallels the increase in turbidity observed using the nucleation assay.
To prepare the stock seed, 1 ml of the Aβ monomer preparation, is incubated for approximately 8 days at 37° C. and sheared sequentially through an 18, 23, 26 and 30 gauge needle 25, 25, 50, and 100 times respectively. 2 μl samples of the sheared material is taken for fluorescence measurements after every 50 passes through the 30 gauge needle until the fluorescence units (FU) plateau (approx. 100-150×). Test compounds are prepared by dissolving an appropriate amount of test compound in 1× PBS to a final concentration of 1 mM (10× stock). If insoluble, the compound is dissolved in 1/10 volume of DMSO and diluted in 1× PBS to 1 mM. A further 1/10 dilution is also prepared to test each candidate at both 100 μM and 10 μM.
To perform the seeded extension assay, each sample is set up with 50 μl of 200 μM monomer, 125 FU sheared seed (a variable quantity dependent on the batch of seed, routinely 3-6 μl) and 10 μl of 10× modulator solution. The sample volume is then adjusted to a final volume of 100 μl with 1× PBS. Two concentrations of each modulator typically are tested: 100 μM and 10 μM, equivalent to a 1:1 and a 1:10 molar ratio of monomer to modulator. The controls include an unseeded reaction to confirm that the fresh monomer contains no seed, and a seeded reaction in the absence of any modulators, as a reference to compare against candidate modulators. The assay is incubated at 37° C. for 6 h, taking 2 μl samples hourly for fluorescence measurements. To measure fluorescence, a 2 μl sample of Aβ is added to 400 μl of Thioflavin-T solution (50 mM Potassium Phosphate […] pH 7.5). The samples are vortexed and the fluorescence is read in a 0.5 ml micro quartz cuvette at EX 450 nm and EM 482 nm (Hitachi 4500 Fluorimeter).
The modulators were evaluated in the nucleation and seeded extension assays described in Example 6 and the results are summarized below in Table V. The change in lag time (ΔLag) is presented as the ratio of the lag time observed in the presence of the test compound to the lag time of the control. […] Inhibition (% Inucl'n) is listed as the percent reduction in the maximum observed turbidity in the control at the end of the assay time period. […]
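Wherever % Inhibition of Plateau is given: Aβ nucleation assay tracking fiber polymerization from monomer by turbidity (light scattering), shaken continuously in 96-well plates, read every 15 min over 5 h, compared with compound-free control.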

T1 sequence (P05067 672-711): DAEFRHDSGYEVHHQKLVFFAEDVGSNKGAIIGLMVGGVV

`C[C@H](CCC(=O)O)[C@H]1CC[C@H]2[C@@H]3[C@H](O)C[C@@H]4C[C@H](O)CC[C@]4(C)[C@H]3C[C@H](O)[C@]12C` [PPI-293, Cholic acid, reference compound]: the “inhibitory activity on Aβ aggregation” value in experiment [1] is given as “had no effect on Aβ aggregation”. Also, the inhibition at 100 % in experiment [2] worked out at 0%.

As to `CC(C)C[C@H](NC(=O)[C@H](CCCCN)NC(=O)[C@H](CCC(N)=O)NC(=O)[C@H](Cc1c[nH]cn1)NC(=O)CC[C@@H](C)[C@H]1CC[C@H]2[C@@H]3[C@H](O)C[C@@H]4C[C@H](O)CC[C@]4(C)[C@H]3C[C@H](O)[C@]12C)C(=O)N[C@H](C(=O)N[C@@H](Cc1ccccc1)C(=O)N[C@@H](Cc1ccccc1)C(=O)O)C(C)C` [PPI-348] (Cholyl-HQKLVFF-OH), in experiment [1], the “% Inhibition of Plateau” value was 49%. Also, the inhibition at 33 % in experiment [2] was 70%.

Regarding `CC(C)C[C@H](NC(=O)[C@H](CCCCN)NC(=O)[C@H](CCC(N)=O)NC(=O)CC[C@@H](C)[C@H]1CC[C@H]2[C@@H]3[C@H](O)C[C@@H]4C[C@H](O)CC[C@]4(C)[C@H]3C[C@H](O)[C@]12C)C(=O)N[C@H](C(=O)N[C@@H](Cc1ccccc1)C(=O)N[C@@H](Cc1ccccc1)C(=O)O)C(C)C` [PPI-349, cholyl-Aβ15-20], the “% Iext'n (percent reduction of thioflavin-T fluorescence)” value in experiment [3] amounted to 56%. In addition, the inhibition at 100 % in experiment [2] worked out at 100%.

Regarding `CC(C)C[C@H](NC(=O)[C@H](CCCCN)NC(=O)CC[C@@H](C)[C@H]1CC[C@H]2[C@@H]3[C@H](O)C[C@@H]4C[C@H](O)CC[C@]4(C)[C@H]3C[C@H](O)[C@]12C)C(=O)N[C@H](C(=O)N[C@@H](Cc1ccccc1)C(=O)N[C@@H](Cc1ccccc1)C(=O)O)C(C)C` [PPI-350, cholyl-Aβ16-20], the “% Iext'n (percent reduction of thioflavin-T fluorescence)” value in experiment [3] is 11%.

For `CC(C)C[C@H](NC(=O)[C@H](CCCCN)NC(=O)CC[C@@H](C)[C@H]1CC[C@H]2[C@@H]3[C@H](O)C[C@@H]4C[C@H](O)CC[C@]4(C)[C@H]3C[C@H](O)[C@]12C)C(=O)N[C@H](C(=O)N[C@@H](Cc1ccccc1)C(=O)N[C@@H](Cc1ccccc1)C(=O)O)[C@@H](C)O` [PPI-369] (Cholyl-KLTFF-OH), the “% Inhibition of Plateau” value in experiment [1] is ~ 0%. For the same compound, the “% Iext'n (percent reduction of thioflavin-T fluorescence)” value in experiment [3] was determined as 44%.

As for `CC(C)C[C@H](NC(=O)[C@H](CCCCN)NC(=O)CC[C@@H](C)[C@H]1CC[C@H]2[C@@H]3[C@H](O)C[C@@H]4C[C@H](O)CC[C@]4(C)[C@H]3C[C@H](O)[C@]12C)C(=O)N[C@H](C(=O)N[C@@H](C)C(=O)N[C@@H](Cc1ccccc1)C(=O)O)C(C)C` [PPI-370, cholyl-Aβ16-20 Phe19- >Ala] (Cholyl-KLVAF-OH), the “% Inhibition of Plateau” value in experiment [1] was found to be 73%. The “% Iext'n (percent reduction of thioflavin-T fluorescence)” value in experiment [3] was 31%.

As to `CC(C)C[C@H](NC(=O)[C@H](CCCCN)NC(=O)CC[C@@H](C)[C@H]1CC[C@H]2[C@@H]3[C@H](O)C[C@@H]4C[C@H](O)CC[C@]4(C)[C@H]3C[C@H](O)[C@]12C)C(=O)N[C@H](C(=O)N[C@@H](Cc1ccccc1)C(=O)N[C@@H](Cc1ccccc1)C(=O)NCCC(=O)O)C(C)C` [PPI-371] (Cholyl-KLVFF[βAla]-OH), the “% Iext'n (percent reduction of thioflavin-T fluorescence)” value in experiment [3] is 80%. In experiment [2], the inhibition at 100 % turned out to be 76%.

Turning to `CC(C)C[C@H](NC(=O)[C@@H](NC(=O)[C@H](Cc1ccccc1)NC(=O)[C@H](CCCCN)NC(=O)[C@H](Cc1ccccc1)NC(=O)CC[C@@H](C)[C@H]1CC[C@H]2[C@@H]3[C@H](O)C[C@@H]4C[C@H](O)CC[C@]4(C)[C@H]3C[C@H](O)[C@]12C)C(C)C)C(=O)O` [PPI-372] (Cholyl-FKFVL-OH), the “% Iext'n (percent reduction of thioflavin-T fluorescence)” value in experiment [3] is 37%. Besides, the inhibition at 100 % in experiment [2] is 45%.

Turning to `CC(=O)N[C@H]1[C@H]([C@H](O)[C@H](O)CO)OC(O)(C(=O)N[C@@H](CCCCN)C(=O)N[C@@H](CC(C)C)C(=O)N[C@H](C(=O)N[C@@H](Cc2ccccc2)C(=O)N[C@@H](Cc2ccccc2)C(=O)O)C(C)C)C[C@@H]1O` (stereo partly shown) [PPI-373] (Ac-[X2]KLVFF-OH), in experiment [3], the “% Iext'n (percent reduction of thioflavin-T fluorescence)” value turned out to be 8%. In experiment [2], the inhibition at 100 % amounted to 16%.

Consider `CC(C)C[C@H](NC(=O)[C@H](CCCCN)NC(=O)CCCC[C@@H]1SC[C@@H]2NC(=N)N[C@@H]21)C(=O)N[C@H](C(=O)N[C@@H](Cc1ccccc1)C(=O)N[C@@H](Cc1ccccc1)C(=O)O)C(C)C` [PPI-374, iminobiotinyl-Aβ16-20], for which, in experiment [1], the “% Inhibition of Plateau” value is 86%. Moreover, in experiment [3], the “% Iext'n (percent reduction of thioflavin-T fluorescence)” value is given as 0%.

As for `CC(C)[C@H](NC(=O)[C@@H](NC(=O)[C@H](CCCCN)NC(=O)CC[C@@H](C)[C@H]1CC[C@H]2[C@@H]3[C@H](O)C[C@@H]4C[C@H](O)CC[C@]4(C)[C@H]3C[C@H](O)[C@]12C)[C@@H](C)O)C(=O)N[C@@H](Cc1ccccc1)C(=O)N[C@@H](Cc1ccccc1)C(=O)O` [PPI-375] (Cholyl-KTVFF-OH), the “% Iext'n (percent reduction of thioflavin-T fluorescence)” value in experiment [3] is reported as 21%. In addition, the inhibition at 100 % in experiment [2] was found to be 18%.

For `CC(C)C[C@H](NC(=O)CC[C@@H](C)[C@H]1CC[C@H]2[C@@H]3[C@H](O)C[C@@H]4C[C@H](O)CC[C@]4(C)[C@H]3C[C@H](O)[C@]12C)C(=O)N[C@H](C(=O)N[C@@H](Cc1ccccc1)C(=O)N[C@@H](Cc1ccccc1)C(=O)N[C@@H](C)C(=O)N[C@@H](CCC(=O)O)C(=O)O)C(C)C` [PPI-379] (Cholyl-LVFFAE-OH), the “% Iext'n (percent reduction of thioflavin-T fluorescence)” value in experiment [3] was found to be 16%. In addition, the inhibition at 100 % in experiment [2] turned out to be 55%.

Take `CC(C)C[C@H](NC(=O)CC[C@@H](C)[C@H]1CC[C@H]2[C@@H]3[C@H](O)C[C@@H]4C[C@H](O)CC[C@]4(C)[C@H]3C[C@H](O)[C@]12C)C(=O)N[C@H](C(=O)N[C@@H](Cc1ccccc1)C(=O)N[C@@H](Cc1ccccc1)C(=O)O)C(C)C` [PPI-380]: in experiment [3], the “% Iext'n (percent reduction of thioflavin-T fluorescence)” value came to 51%. Also, in experiment [2], the inhibition at 33 % was found to be 72%.

Consider `CC(C)C[C@H](NC(=O)CC[C@@H](C)[C@H]1CC[C@H]2[C@@H]3[C@H](O)C[C@@H]4C[C@H](O)CC[C@]4(C)[C@H]3C[C@H](O)[C@]12C)C(=O)N[C@H](C(=O)N[C@@H](Cc1ccccc1)C(=O)N[C@@H](Cc1ccccc1)C(=O)N[C@H](C)C(=O)O)C(C)C` [PPI-381], for which, in experiment [3], the “% Iext'n (percent reduction of thioflavin-T fluorescence)” value is given as 11%. The inhibition at 100 % in experiment [2] stood at 56%.

As for `CC(C)C[C@H](NC(=O)CC[C@@H](C)[C@H]1CC[C@H]2[C@@H]3[C@H](O)C[C@@H]4C[C@H](O)CC[C@]4(C)[C@H]3C[C@H](O)[C@]12C)C(=O)N[C@H](C(=O)N[C@@H](Cc1ccccc1)C(=O)N[C@@H](Cc1ccccc1)C(=O)N[C@@H](C)C(N)=O)C(C)C` [PPI-382], the “% Iext'n (percent reduction of thioflavin-T fluorescence)” value in experiment [3] stood at 91%. For the same compound, in experiment [2], the inhibition at 100 % was -200%.

In the case of `COC(=O)[C@H](C)NC(=O)[C@H](Cc1ccccc1)NC(=O)[C@H](Cc1ccccc1)NC(=O)[C@@H](NC(=O)[C@H](CC(C)C)NC(=O)CC[C@@H](C)[C@H]1CC[C@H]2[C@@H]3[C@H](O)C[C@@H]4C[C@H](O)CC[C@]4(C)[C@H]3C[C@H](O)[C@]12C)C(C)C` [PPI-401], the “% Iext'n (percent reduction of thioflavin-T fluorescence)” value in experiment [3] worked out at 0%.

Take `C[C@H](CCC(=O)NCC(=O)N[C@@H](Cc1ccccc1)C(=O)N[C@@H](Cc1ccccc1)C(=O)O)[C@H]1CC[C@H]2[C@@H]3[C@H](O)C[C@@H]4C[C@H](O)CC[C@]4(C)[C@H]3C[C@H](O)[C@]12C` [PPI-438]: the inhibition at 100 % in experiment [2] is 0%.
